Source: PMC8158122, “Development of Pelubiprofen Tromethamine with Improved Gastrointestinal Safety and Absorption” (Pharmaceutics, 2021)
In brackets after ≈: the same amount, converted by molar mass. Where two headings read alike, the source gives them in different places.

Experiments:
[1] = Solubility at various pH values; format: physicochemical; conditions: thermodynamic from solid, stirred 24 h, mean ± S.D. (n = 3)
Procedure: (§1) PEL and butylparaben (IS) were prepared and further diluted in a mixture of methanol and deionized water at a ratio of 4:1 (v/v) to provide a working PEL and IS solution of concentration 30 µg/mL. The PEL concentration was determined using an HPLC system (Model 1260; Agilent Technologies Inc., Santa Clara, CA, USA). Chromatographic separation was performed using a C18 column (4.6 × 150 mm, 5 µm, Waters, Milford, MA, USA) at a flow rate of 1.1 mL/min with the mobile phase consisting of methanol, water, and acetic acid at a ratio of 1200:800:1 (v/v). The sample was injected into the column, and the peaks were monitored using a UV detector at 274 nm.
The solubilities of PEL-T and PEL were compared and evaluated based on the pH changes. After dissolving 5 g of PEL-T and PEL each in 5 mL of water, a pH 1.2 solution, a pH 4.0 solution, and a pH 6.8 solution, respectively, the mixtures were stirred for 24 h, filtered using a 0.45 μm polyvinylidene difluoride (PVDF) syringe filter, and then were analyzed using an HPLC assay, as described above (Section 2.4).

[2] = Stress stability test (high temperature or high humidity); format: physicochemical
Procedure: as §1
Stability tests of PEL-T and PEL were performed under stress storage conditions. PEL-T and PEL were packed into high-density polyethylene (HDPE) bottles with caps and used as stability test samples. For stress stability, the samples were stored at a high temperature (80 ± 5 °C) or high humidity (relative humidity (RH) 90 ± 5%). The drug content and impurities were determined using the HPLC assay described above (Section 2.4) at the following time points: 0, 14, and 21 days (Tables S3 and S4).

[3] = Permeability test in Caco-2 cell monolayers; format: in vitro ADME; conditions: human, Caco-2; Kp [B to A]/Kp [A to B]
Procedure: (§2) Caco-2 monolayer experiments were performed as previously described with a few modifications [20]. The Caco-2 cells were obtained from the Korean Cell Line Bank (Seoul, Korea) and used in the transport experiments between passages 40 and 50. The cells were cultured at 37 °C with 5% CO2 and maintained in Dulbecco’s modified Eagle’s medium with 10% fetal bovine serum, 1% nonessential amino acids, 10,000 units/mL penicillin, and 10,000 μg/mL streptomycin. For the transport studies, cells were seeded on rat tail collagen-coated Transwell insert filters on 12-well plates at 3 × 10^5 cells/500 μL and were cultured for 21–29 days. For the first 7 days, the medium was replaced every 2–3 days, and daily thereafter. Monolayer integrity was checked before and after each experiment using a Millicell-ERS instrument to determine the transepithelial electrical resistance (TEER) across the monolayer and to ensure that there were no substantial changes in the monolayer integrity throughout the duration of the experiments.
(§3) Prior to transport experiments, the cell monolayers were washed twice using Hank’s balanced salt solution (HBSS), and the Caco-2 cell Transwell model was preincubated at 37 °C for 15 min. […] The sample was pretreated using a protein precipitation method and the concentrations of PEL in each sample were determined using an LC–MS/MS assay, as described below (Section 2.9). […] The sample was pretreated using a protein precipitation method and the concentration of PEL in each sample was determined using an LC–MS/MS assay. The steady state flux (Js) and permeability coefficient (Kp) were calculated according to Equations (1) and (2):Js [ng/(cm^2 × h)] = Qr/(A × t)(1) Kp (cm/h) = Js/Cd(2) where Qr is the total permeation amount of PEL in the basolateral (for the absorptive transport) or apical (for the secretory transport) side (ng), A is the surface area of the insert (1.12 cm^2), t is the permeation time (h), and Cd is the initial drug concentration in the apical (for the absorptive transport) or basolateral (for the secretory transport) side (ng/cm^3). […]

Caco-2 cells = assay: Permeability test in Caco-2 cell monolayers; format: in vitro ADME
Procedure: as §2, §3

gastric mucosa = assay: Gastric mucosal injury test in rats; format: in vivo, Sprague-Dawley (SD) rats; conditions: single p.o. dose equivalent to PEL 300 mg/kg, 6 h after dosing, 48 h fasted male SD rats, n = 10
Procedure: The gastric mucosal injury test was performed by KNOTUS Co., Ltd. (Guri, Korea) and approved by the Animal Ethics Committee (Protocol number: […]-354 approved 18 October 2018). Male Sprague-Dawley (SD) rats (7-weeks-old) from Orient bio Co., Ltd. […] The rats were randomly divided into three groups, each group consisting of 10 animals. […] The area of the lesions was analyzed using ImageJ software (National Institutes of Health, Bethesda, MD, USA).

[4] = PK study in rats after oral administration; format: in vivo, Sprague-Dawley (SD) rats; conditions: male, Sprague-Dawley, rat, PEL in plasma, single oral dose 9.3 mg/kg PEL equivalent, n = 10
Procedure: Male Sprague-Dawley (SD) rats (8-weeks-old) from DBL Co., Ltd. (Eumseong, Korea) were maintained under constant laboratory conditions (temperature: 22 ± 3 °C, RH: 50 ± 20%, light/dark cycle: 12 h). The rats were divided into two groups, each composed of 10 rats. The animals were fasted overnight and were only allowed free access to water. […] Blood samples (500 μL) were collected directly from the jugular vein at predetermined time points (0, 0.083, 0.167, 0.25, 0.5, 0.75, 1, 2, 3, 4, and 8 h) using heparinized syringes. The collected blood samples were centrifuged immediately at 12,000 rpm for 5 min at 4 °C and the obtained plasma samples were stored at −70 °C until analysis.
The plasma concentration of PEL was determined using LC–MS/MS (Agilent 1260; Agilent Technologies Inc., Santa Clara, CA, USA). The chromatographic separation of PEL was performed using an ODS column (Poroshell 120 EC-C18, 2.1 × 30 mm, 2.7 µm, Agilent Technologies Inc., Santa Clara, CA, USA). The mobile phase (MP) consisted of 0.1% formic acid and acetonitrile with a gradient elution and the flow rate used was 0.4 mL/min. Mass spectrometric detection was done using an AB Sciex API 4000 triple quadrupole mass spectrometer (AB Sciex Instruments, Framingham, MA, USA). The electrospray ionization (ESI) source was set to positive ion mode. The mass-to-charge ratios (m/z) used were 259.0 → 195.2 for PEL and 255.1 → 208.9 for ketoprofen, which were used as the internal standards (IS). […] The assay method was validated for linearity, accuracy, and precision.
The PK parameters for PEL were calculated using the noncompartmental analysis and WinNonlin® 8.1 (Pharsight, CA, USA). The area under the plasma concentration–time curve from 0 h to the last time point (AUCt) was calculated for all samples using the linear trapezoidal method. The maximum plasma concentration and time to reach the maximum plasma concentration (Tmax) were directly obtained from the plasma concentration–time profiles.

[5] = set-up: method as in PMID 27492018, doi:10.2133/dmpk.10.637; conditions: oral administration, rats; cited from earlier work
[6] = set-up: method as in PMID 27492018, doi:10.2133/dmpk.10.637; conditions: oral administration, cited from earlier work

For `CC(C(=O)O)c1ccc(C=C2CCCCC2=O)cc1` (stereo not drawn) [PEL, 2-[4-(2-oxocyclohexylidenemethyl)phenyl] propionic acid], the solubility at 24 h ([1]; aqueous buffer, pH 4.0 solution) was 70 ± 40 µg/mL (≈ 271 µM), the solubility at 24 h ([1]; aqueous buffer, pH 6.8 solution) was 4050 ± 140 µg/mL (≈ 15700 µM) and the solubility at 24 h ([1]; simulated gastric fluid, pH 1.2 solution) was 30 ± 10 µg/mL (≈ 116 µM). The solubility at 24 h ([1]; water) was 130 ± 30 µg/mL (≈ 503 µM), the “Changes in the drug contents in the stress stability test” value ([2]; 80 ± 5 °C or RH 90 ± 5%, entire period (21 days)) was “No significant changes” and the Contents ([2]; 80 ± 5 °C, 0 days) was 98.6 ± 0.8%. For the same compound, the Contents ([2]; 80 ± 5 °C, 14 days) was 98.2 ± 0.6%, the Contents ([2]; 80 ± 5 °C, 21 days) was 97.1 ± 0.9% and the Contents ([2]; RH 90 ± 5%, 0 days) was 98.6 ± 0.8%. It also gave a Contents ([2]; RH 90 ± 5%, 14 days) of 98.9 ± 0.4%, a Contents ([2]; RH 90 ± 5%, 21 days) of 98.5 ± 0.4% and an efflux ratio at 120 min, 50 μM [3] of 1.24. The “Efflux ratio, times higher than that of PEL-T” value (Caco-2 cells) was 1.6 times, the “Kp B to A, times higher than that of PEL-T” value (Caco-2 cells; secretory direction, not statistically significant) was 1.3 times and the “Damage area (mucosal hemorrhagic lesions)” value (gastric mucosa) was 4.01%. It also gave an AUC(0-t) [4] of 19.2 ± 7.01 ng·h/mL, a Cmax [4] of 46.3 ± 29.2 ng/mL and a Tmax ([4]; plasma, po, 9.3 mg/kg) of 23.4 ± 11.4 min. For the same compound, the “Time to reach the maximum plasma concentration (Cmax)” value (shortened to “Time … (Cmax)”) [5] was 30 min, the “Time … (Cmax)” value ([6]; female beagle dogs) was 2 h and the “Time … (Cmax)” value ([6]; male beagle dogs) was 1 h.
